# Experimental data published in US12202805B2, “Process for preparing (5S)-{[2-(4-carboxyphenyl)ethyl] |2-(2-{|3-chloro-4'-(trifluoromethyl)biphenyl-4-yl]methoxy}phenyl)ethyl]aminol-5,6,7,8-tetrahydroquinoline-2-carboxylic acid and its crystalline forms for use as pharmaceutically active compound” (Bayer Aktiengesellschaft, priority 2021, dated 2025).
# Experiments:
# [1] = Protein binding via Transil assay, dog plasma; assay type: in vitro ADME
# Procedure: (§1) Protein Binding of Comparative Example 11 and Comparative Example 1 was Analyzed Via Transil Assay, Described Below.
# (§2) The distribution of a test substance between Transil® (phosphatidylcholine lipid bilayers immobilized on silica beads) and plasma is a characteristic feature of any pharmaceutical compound and is dependent on its extent of binding to plasma proteins. By comparing the distribution between Transil® and buffer with the distribution between Transil® and plasma of any species of interest, the unbound fraction in the plasma of the respective animal species can be calculated in vitro. The respective plasma and buffer concentrations were determined via a radioactivity analysis. A detailed description of the method and its validation was published by Schuhmacher et al. (2).
# [2] = Protein binding via Transil assay, rat plasma; assay type: in vitro ADME
# Procedure: as §1, §2
smiles,measurement,setting,value
"O=C(O)c1ccc(CCN(CCc2ccccc2OCc2ccc(-c3ccc(C(F)(F)F)cc3)cc2Cl)[C@H]2CCCc3nc(C(=O)O)ccc32)cc1 [comparative example 11, (5S)-5-{[2-(4-carboxyphenyl)ethyl][2-(2-{[3-chloro-4′-(trifluoromethyl)[biphenyl]-4-yl]methoxy}phenyl)ethyl]amino}-5,6,7,8-tetrahydroquinoline-2-carboxylic acid]","fraction unbound, times lower than comparative example 1",[1],10 times
same,"fraction unbound, times lower than comparative example 1",[2],1.6 times
